Assay results: ChEMBL document CHEMBL1782045, “Discovery, synthesis, and investigation of the antitumor activity of novel piperazinylpyrimidine derivatives” (Eur J Med Chem, 2011)

What was measured:
NCI-H460 = experiment: Cytotoxicity against human NCI-H460 cells after 48 hrs by sulforhodamine B assay; assay type: cell-based; conditions: nci-h460, 48 h
IGROV-1 = experiment: Cytotoxicity against human IGROV1 cells after 48 hrs by sulforhodamine B assay; assay type: cell-based; conditions: igrov-1, 48 h
MDA-MB-231 [1] = experiment: Growth inhibition of human MDA-MB-231 cells after 48 hrs by sulforhodamine B assay; assay type: functional; conditions: MDA-MB-231, 48 h
[2] = test system: T1, Receptor-type tyrosine-protein kinase FLT3 (Homo sapiens), P36888 [D835H]; experiment: Binding affinity to human FLT3 D835H mutant at 10 uM incubated for 1 hr by kinase binding assay relative to untreated control
T1 sequence (whole entry): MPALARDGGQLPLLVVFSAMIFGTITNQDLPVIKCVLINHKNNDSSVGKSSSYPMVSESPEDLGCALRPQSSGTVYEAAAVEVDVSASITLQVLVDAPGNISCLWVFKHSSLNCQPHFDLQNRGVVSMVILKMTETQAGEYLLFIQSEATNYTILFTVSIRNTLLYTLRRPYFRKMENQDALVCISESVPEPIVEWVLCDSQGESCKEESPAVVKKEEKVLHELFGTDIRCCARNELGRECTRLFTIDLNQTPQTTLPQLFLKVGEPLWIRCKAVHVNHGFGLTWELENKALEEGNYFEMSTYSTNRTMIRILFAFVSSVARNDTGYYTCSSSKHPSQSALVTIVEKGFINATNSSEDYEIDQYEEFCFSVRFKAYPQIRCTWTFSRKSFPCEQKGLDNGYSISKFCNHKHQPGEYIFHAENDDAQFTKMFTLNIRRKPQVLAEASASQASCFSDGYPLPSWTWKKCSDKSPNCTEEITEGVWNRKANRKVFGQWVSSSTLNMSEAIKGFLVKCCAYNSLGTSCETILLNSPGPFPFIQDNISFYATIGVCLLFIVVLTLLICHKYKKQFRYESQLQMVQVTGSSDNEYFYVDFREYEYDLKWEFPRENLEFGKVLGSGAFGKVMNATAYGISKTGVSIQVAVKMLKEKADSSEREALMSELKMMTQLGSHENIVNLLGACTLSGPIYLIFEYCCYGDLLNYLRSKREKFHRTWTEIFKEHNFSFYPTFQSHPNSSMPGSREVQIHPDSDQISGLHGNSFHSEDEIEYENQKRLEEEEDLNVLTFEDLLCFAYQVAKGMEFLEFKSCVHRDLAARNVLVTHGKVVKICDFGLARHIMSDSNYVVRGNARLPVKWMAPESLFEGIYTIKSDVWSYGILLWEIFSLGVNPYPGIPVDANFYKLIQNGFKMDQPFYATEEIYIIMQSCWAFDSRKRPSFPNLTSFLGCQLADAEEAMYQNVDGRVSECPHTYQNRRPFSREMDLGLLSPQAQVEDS

SNB-19 = experiment: Growth inhibition of human SNB19 cells after 48 hrs by sulforhodamine B assay; assay type: functional; conditions: SNB-19, 48 h
[3] = target: Mitogen-activated protein kinase 1 (Homo sapiens) (UniProt P28482); experiment: Inhibition of human MAPK1 using gamma-33P-ATP as substrate assessed as enzyme functional activity at 1 uM by scintillation counting relative to untreated control; design: scale not given: the % may be the effect or the level left
Mitogen-activated protein kinase 1 (Homo sapiens), sequence (P28482 whole entry): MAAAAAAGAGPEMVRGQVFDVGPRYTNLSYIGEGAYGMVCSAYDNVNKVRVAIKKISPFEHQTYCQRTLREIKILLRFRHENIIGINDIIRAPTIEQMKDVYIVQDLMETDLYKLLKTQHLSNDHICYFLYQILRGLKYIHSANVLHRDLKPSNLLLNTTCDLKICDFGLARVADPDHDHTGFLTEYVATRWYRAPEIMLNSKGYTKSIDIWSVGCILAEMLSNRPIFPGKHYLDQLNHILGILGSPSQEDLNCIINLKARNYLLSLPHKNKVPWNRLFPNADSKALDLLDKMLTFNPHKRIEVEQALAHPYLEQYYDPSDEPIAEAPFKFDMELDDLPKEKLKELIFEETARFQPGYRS

EKVX = experiment: Cytotoxicity against human EKVX cells after 48 hrs by sulforhodamine B assay; assay type: cell-based
HCT-15 = experiment: Cytotoxicity against human HCT15 cells after 48 hrs by sulforhodamine B assay; assay type: cell-based; conditions: hct-15, 48 h
KM12 = experiment: Growth inhibition of human KM12 cells after 48 hrs by sulforhodamine B assay; assay type: functional; conditions: KM12, 48 h
TK-10 = experiment: Growth inhibition of human TK10 cells after 48 hrs by sulforhodamine B assay; assay type: functional; conditions: TK-10, 48 h
[4] = target: Cyclin-dependent kinase 8 (Homo sapiens) (UniProt P49336); experiment: Binding affinity to human CDK8 at 10 uM incubated for 1 hr by kinase binding assay relative to untreated control
Cyclin-dependent kinase 8 (Homo sapiens), sequence (P49336 whole entry): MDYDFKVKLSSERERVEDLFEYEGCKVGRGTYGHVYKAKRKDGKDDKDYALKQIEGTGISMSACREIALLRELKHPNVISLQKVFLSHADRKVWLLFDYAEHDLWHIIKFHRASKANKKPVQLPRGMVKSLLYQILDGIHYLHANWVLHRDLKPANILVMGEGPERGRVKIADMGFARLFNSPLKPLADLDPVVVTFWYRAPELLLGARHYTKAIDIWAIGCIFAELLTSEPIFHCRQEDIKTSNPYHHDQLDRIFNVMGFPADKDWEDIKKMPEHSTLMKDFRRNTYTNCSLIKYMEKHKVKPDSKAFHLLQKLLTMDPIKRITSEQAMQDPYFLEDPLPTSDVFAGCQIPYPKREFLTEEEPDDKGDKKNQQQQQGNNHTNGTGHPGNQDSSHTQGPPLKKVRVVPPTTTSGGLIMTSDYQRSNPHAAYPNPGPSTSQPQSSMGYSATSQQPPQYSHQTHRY

T47D = experiment: Growth inhibition of human T47D cells after 48 hrs by sulforhodamine B assay; assay type: functional
CAKI-1 = experiment: Cytotoxicity against human Caki1 cells after 48 hrs by sulforhodamine B assay; assay type: cell-based; conditions: caki-1, 48 h
[5] = test system: Mast/stem cell growth factor receptor Kit (Homo sapiens), P10721 [D816H]; experiment: Inhibition of human KIT D816H using gamma-33P-ATP as substrate assessed as enzyme functional activity at 1 uM by scintillation counting relative to untreated control; design: scale not given: the % may be the effect or the level left
Mast/stem cell growth factor receptor Kit (Homo sapiens), P10721 [D816H], sequence (P10721 whole entry D816H): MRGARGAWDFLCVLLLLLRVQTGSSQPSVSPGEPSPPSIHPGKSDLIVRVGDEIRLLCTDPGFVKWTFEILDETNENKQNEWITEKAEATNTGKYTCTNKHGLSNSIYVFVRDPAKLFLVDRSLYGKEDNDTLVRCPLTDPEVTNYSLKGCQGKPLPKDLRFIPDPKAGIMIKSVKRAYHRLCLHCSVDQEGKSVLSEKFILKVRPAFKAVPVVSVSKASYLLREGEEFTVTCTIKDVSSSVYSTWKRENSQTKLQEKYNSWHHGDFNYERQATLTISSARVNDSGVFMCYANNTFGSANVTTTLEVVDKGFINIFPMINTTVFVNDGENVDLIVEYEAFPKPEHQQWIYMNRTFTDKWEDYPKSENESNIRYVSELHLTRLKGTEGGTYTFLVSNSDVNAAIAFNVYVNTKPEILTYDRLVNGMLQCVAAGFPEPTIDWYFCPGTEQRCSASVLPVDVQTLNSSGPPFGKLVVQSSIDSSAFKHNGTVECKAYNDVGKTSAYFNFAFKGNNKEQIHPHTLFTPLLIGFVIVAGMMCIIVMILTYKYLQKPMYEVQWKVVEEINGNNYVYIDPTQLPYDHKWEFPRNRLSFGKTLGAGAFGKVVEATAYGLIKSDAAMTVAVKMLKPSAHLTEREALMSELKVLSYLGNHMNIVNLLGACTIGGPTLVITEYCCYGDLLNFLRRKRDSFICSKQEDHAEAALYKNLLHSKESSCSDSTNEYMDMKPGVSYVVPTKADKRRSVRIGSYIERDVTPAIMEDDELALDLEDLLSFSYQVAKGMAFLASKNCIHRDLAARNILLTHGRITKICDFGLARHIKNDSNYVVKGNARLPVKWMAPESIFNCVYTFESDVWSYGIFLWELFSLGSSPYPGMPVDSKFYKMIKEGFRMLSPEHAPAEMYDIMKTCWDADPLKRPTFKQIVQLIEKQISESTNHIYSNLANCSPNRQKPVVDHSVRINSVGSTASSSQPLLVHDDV

UO-31 = experiment: Cytotoxicity against human UO31 cells after 48 hrs by sulforhodamine B assay; assay type: cell-based; conditions: uo-31, 48 h
OVCAR-4 = experiment: Cytotoxicity against human OVCAR4 cells after 48 hrs by sulforhodamine B assay; assay type: cell-based; conditions: ovcar-4, 48 h
NCI/ADR-RES = experiment: Growth inhibition of human NCI/ADR-RES cells after 48 hrs by sulforhodamine B assay; assay type: functional
RPMI-8226 = experiment: Cytotoxicity against human RPMI8226 cells after 48 hrs by sulforhodamine B assay; assay type: cell-based; conditions: rpmi-8226, 48 h
[6] = target: Serine/threonine-protein kinase B-raf (Homo sapiens) (UniProt P15056); experiment: Binding affinity to human BRAF at 10 uM incubated for 1 hr by kinase binding assay relative to untreated control
Serine/threonine-protein kinase B-raf (Homo sapiens), sequence (P15056 whole entry): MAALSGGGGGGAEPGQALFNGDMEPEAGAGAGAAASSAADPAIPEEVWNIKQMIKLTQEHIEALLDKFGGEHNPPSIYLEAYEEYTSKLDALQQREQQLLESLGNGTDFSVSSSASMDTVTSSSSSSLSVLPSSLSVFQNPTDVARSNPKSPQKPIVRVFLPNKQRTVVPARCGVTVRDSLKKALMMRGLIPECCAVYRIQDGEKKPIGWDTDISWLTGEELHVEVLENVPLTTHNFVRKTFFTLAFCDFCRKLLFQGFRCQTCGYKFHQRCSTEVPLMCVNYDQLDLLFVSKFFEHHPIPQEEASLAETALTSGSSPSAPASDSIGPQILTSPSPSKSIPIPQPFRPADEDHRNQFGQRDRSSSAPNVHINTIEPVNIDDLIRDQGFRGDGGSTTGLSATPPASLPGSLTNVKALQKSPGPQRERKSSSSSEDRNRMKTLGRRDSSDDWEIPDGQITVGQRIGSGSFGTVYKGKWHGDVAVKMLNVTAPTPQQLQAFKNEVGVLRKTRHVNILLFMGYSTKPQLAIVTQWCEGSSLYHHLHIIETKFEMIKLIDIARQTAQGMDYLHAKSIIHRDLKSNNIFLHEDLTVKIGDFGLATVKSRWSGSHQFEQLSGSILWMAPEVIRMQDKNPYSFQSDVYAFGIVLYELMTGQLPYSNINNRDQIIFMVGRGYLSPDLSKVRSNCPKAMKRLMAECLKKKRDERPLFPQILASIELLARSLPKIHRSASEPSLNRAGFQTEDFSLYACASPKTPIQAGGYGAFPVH

PC-3 = experiment: Cytotoxicity against human PC3 cells after 48 hrs by sulforhodamine B assay; assay type: cell-based; conditions: pc-3, 48 h
SN12C = experiment: Growth inhibition of human SN12C cells after 48 hrs by sulforhodamine B assay; assay type: functional
SK-MEL-2 [7] = experiment: Cytotoxicity against human SK-MEL-2 cells after 48 hrs by sulforhodamine B assay; assay type: cell-based; conditions: sk-mel-2, 48 h
SK-OV-3 = experiment: Cytotoxicity against human SKOV3 cells after 48 hrs by sulforhodamine B assay; assay type: cell-based; conditions: sk-ov-3, 48 h
786-0 = experiment: Cytotoxicity against human 786-0 cells after 48 hrs by sulforhodamine B assay; assay type: cell-based; conditions: 786-0, 48 h
MDA-MB-231 [8] = experiment: Cytotoxicity against human MDA-MB-231 cells after 48 hrs by sulforhodamine B assay; assay type: cell-based; conditions: mda-mb-231, 48 h
SK-MEL-2 [9] = experiment: Growth inhibition of human SK-MEL-2 cells after 48 hrs by sulforhodamine B assay; assay type: functional; conditions: SK-MEL-2, 48 h
[10] = target: Cyclin-dependent kinase 19 (Homo sapiens) (UniProt Q9BWU1); experiment: Binding affinity to human CDK11 at 10 uM incubated for 1 hr by kinase binding assay relative to untreated control
Cyclin-dependent kinase 19 (Homo sapiens), sequence (Q9BWU1 whole entry): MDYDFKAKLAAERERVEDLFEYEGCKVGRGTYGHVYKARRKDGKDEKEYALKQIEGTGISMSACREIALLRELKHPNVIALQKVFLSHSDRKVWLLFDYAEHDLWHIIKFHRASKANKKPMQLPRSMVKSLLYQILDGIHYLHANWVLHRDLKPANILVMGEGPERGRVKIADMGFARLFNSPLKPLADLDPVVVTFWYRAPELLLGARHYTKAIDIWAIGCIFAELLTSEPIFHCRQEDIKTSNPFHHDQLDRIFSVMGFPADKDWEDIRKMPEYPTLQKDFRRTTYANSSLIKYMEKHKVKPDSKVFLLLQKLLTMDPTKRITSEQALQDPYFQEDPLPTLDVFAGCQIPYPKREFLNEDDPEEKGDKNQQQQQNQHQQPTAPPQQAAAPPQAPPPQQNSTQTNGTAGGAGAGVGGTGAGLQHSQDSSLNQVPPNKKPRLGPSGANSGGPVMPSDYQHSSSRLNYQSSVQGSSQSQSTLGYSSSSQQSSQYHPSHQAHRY

HOP-62 = experiment: Cytotoxicity against human HOP62 cells after 48 hrs by sulforhodamine B assay; assay type: cell-based; conditions: hop-62, 48 h
Hs-578T = experiment: Cytotoxicity against human Hs578T cells after 48 hrs by sulforhodamine B assay; assay type: cell-based

Structure (SMILES)	LC50 (NCI-H460)	LC50 (IGROV-1)	TGI (MDA-MB-231 [1])	Activity [2]	TGI (SNB-19)	Activity [3]	LC50 (EKVX)	LC50 (HCT-15)	TGI (KM12)	TGI (TK-10)	Activity [4]	TGI (T47D)	LC50 (CAKI-1)	Activity [5]	LC50 (UO-31)	LC50 (OVCAR-4)	TGI (NCI/ADR-RES)	LC50 (RPMI-8226)	Activity [6]	LC50 (PC-3)	further results
CCc1cnc(N2CCN(C(=O)c3ccc(CNc4ncnc5ccccc45)cc3)CC2)nc1	> 100 µM	> 100 µM	84.9 µM	> 50%	> 100 µM	100%	> 100 µM	> 100 µM	24.3 µM	> 100 µM	> 50%	> 100 µM	> 100 µM	100%	> 100 µM	> 100 µM	21.5 µM	> 100 µM	34%	> 100 µM	TGI (SN12C): 59 µM; LC50 (SK-MEL-2 [7]): > 100 µM; LC50 (SK-OV-3): > 100 µM; LC50 (786-0): > 100 µM; LC50 (MDA-MB-231 [8]): > 100 µM; TGI (SK-MEL-2 [9]): > 100 µM; Activity [10]: 47%; LC50 (HOP-62): > 100 µM; LC50 (Hs-578T): > 100 µM
c1ccc(Cc2cnc(N3CCN(c4ncnc5ccccc45)CC3)nc2)cc1	55 µM	> 100 µM	38.1 µM	46%	> 100 µM	100%	> 100 µM	> 100 µM	25.1 µM	60.8 µM	3.4%	45.5 µM	> 100 µM	30%	> 100 µM	> 100 µM	17.6 µM	97.3 µM	> 50%	> 100 µM	TGI (SN12C): 24.4 µM; LC50 (SK-MEL-2 [7]): 70.3 µM; LC50 (SK-OV-3): > 100 µM; LC50 (786-0): > 100 µM; LC50 (MDA-MB-231 [8]): 92.8 µM; TGI (SK-MEL-2 [9]): 35.8 µM; Activity [10]: 0%; LC50 (HOP-62): > 100 µM; LC50 (Hs-578T): > 100 µM
O=C(c1cccc(Nc2ncnc3ccccc23)c1)N1CCN(c2ncc(Cc3ccccc3)cn2)CC1	> 100 µM	5.01 µM	2.95 µM	> 50%	8.91 µM	73%	> 100 µM	9.33 µM	2.4 µM	6.17 µM	> 50%	7.59 µM	4.47 µM	100%	4.37 µM	7.59 µM	8.51 µM	3.89 µM	> 50%	> 100 µM	TGI (SN12C): 7.08 µM; LC50 (SK-MEL-2 [7]): 5.89 µM; LC50 (SK-OV-3): > 100 µM; LC50 (786-0): > 100 µM; LC50 (MDA-MB-231 [8]): > 100 µM; TGI (SK-MEL-2 [9]): 2.69 µM; Activity [10]: > 50%; LC50 (HOP-62): 7.41 µM; LC50 (Hs-578T): > 100 µM
